In patent US20240383845A1, “NAPHTHALENEDITHIOL AND DERIVATIVE THEREOF, AND PRODUCTION PROCESS AND USE FOR THE SAME” (SUGAI CHEMICAL INDUSTRY CO., LTD., priority 2021, published 2024):

Experiments:
[1] = Refractive index (abbe refractometer); type: physicochemical
Method: The refractive index of each sample was measured using an abbe refractometer (“NAR-lT” manufactured by ATAGO CO., LTD.) at a temperature of 25° C. and a wavelength of 589 nm. Depending on the species of each sample, the refractive index was measured as follows.
For the after-mentioned 16NDSH, 15NDSH, 26NDSH and 27NDSH; 15DGNDSH; 15DHENDSH; 16DMNDSH and 15DMNDSH; and 16DCNDSH and 15DCNDSH, a sample was dissolved in 1,3-dimethyl-2-imidazolidinone (DMI) to prepare multiple solutions with different concentrations, and the refractive index of each solution was measured at a temperature of 25° C. and a wavelength of 589 nm. From the results of the refractive index at each concentration, the refractive index value at 100% by mass of the concentration was determined by extrapolation.
For the after-mentioned 16NDSHMA, 15NDSHMA, 26NDSHMA and 27NDSHMA; 16NDSHA and 15NDSHA; 15DANDSH; and 15DVNDSH, polymerization may occur during the mixing, and thus a sample was dissolved in a methoquinone/DMI solution (a solution containing 4000 ppm of methoquinone relative to the mass of DMI) to prepare multiple solutions with different concentrations. The refractive index of each solution was measured at a temperature of 25° C. and a wavelength of 589 nm. From the results of the refractive index at each concentration, the refractive index value at 100% by mass of the concentration was determined by extrapolation.
For the after-mentioned 16DANDSH; 16DVNDSH; 16DGNDSH; and 16DHENDSH, a sample was liquid for a while after preparation, and thus the refractive index was measured in the state of an undiluted solution. Further, thiol-ene-based resins (thiol-ene-based resins obtained from 16NDSH or 15NDSH and divinylbenzene) were measured in the same manner. […]

[2] = Dissolubility or compatibility (maximum dissolved concentration, HPLC); type: physicochemical; details: for Dissolubility, Ethyl acetate / Dissolubility, MMA / Dissolubility, PGMEA / Dissolubility, Styrene / Dissolubility, Toluene / Dissolubility, DMF / Dissolubility, THF / Dissolubility, Methanol: 25° C.; for Dissolubility, MMA: methyl methacrylate; for Dissolubility, PGMEA: propylene glycol monomethyl ether acetate; for Dissolubility, DMF: N,N-dimethylformamide; for Dissolubility, THF: tetrahydrofuran
Method: In more detail, the sample was added to a predetermined amount of a solvent or a polymerizable component until the sample was no longer dissolved, and the sample content of the liquid layer (the solvent layer) of the resulting mixture was analyzed using an HPLC (“SPD-20A” manufactured by SHIMADZU CORPORATION), and thus the concentration (the maximum dissolved concentration) of the sample in the liquid layer (the solvent layer) was determined as a solubility.

[3] = stated for the raw material used, method not stated
[4] = 25° C., 589 nm, methoquinone/DMI solutions, value at 100% by mass by extrapolation
[5] = 25° C., 589 nm, DMI solutions of different concentrations, value at 100% by mass by extrapolation
[6] = 25° C., 589 nm, measured as undiluted liquid (also thiol-ene-based resins)

| Compound | Refractive index [1, 3] | Dissolubility, Ethyl acetate [2] | Dissolubility, MMA [2] | Dissolubility, PGMEA [2] | Dissolubility, Styrene [2] | Dissolubility, Toluene [2] | melting point | Refractive index [1, 4] | Dissolubility, DMF [2] | Dissolubility, THF [2] | Refractive index [1, 5] | saturation solubility ([2]; in PMMA resin composition) | Dissolubility, Methanol [2] | saturation solubility ([2]; in 55% divinylbenzene (isomer mixture)) | saturation solubility ([2]; in curable composition with bisphenol A-type liquid epoxy resin) | saturation solubility ([2]; in styrene (curable resin)) | Refractive index [1, 6] |
| --- | --- | --- | --- | --- | --- | --- | --- | --- | --- | --- | --- | --- | --- | --- | --- | --- | --- |
| CCc1nc(C)c[nH]1 [2-ethyl-4-methylimidazole] | 1.499 | – | – | – | – | – | – | – | – | – | – | – | – | – | – | – | – |
| C=CCSc1cccc2c(SCC=C)cccc12 [Example 15DANDSH, 1,5-bis(allylthio)naphthalene] | – | 16.4 % by mass | 26.6 % by mass | 13.7 % by mass | 10.6 % by mass | 26.1 % by mass | 78 to 79 °C | 1.653 | – | – | – | – | – | – | – | – | – |
| O=C(O)CSc1cccc2c(SCC(=O)O)cccc12 [Example 15DCNDSH, 1,5-bis(carboxymethylthio)naphthalene] | – | 0.03 % by mass | < 0.01 % by mass | 0.02 % by mass | – | – | – | – | 10.1 % by mass | 0.67 % by mass | 1.657 | – | – | – | – | – | – |
| c1cc(SCC2CO2)c2cccc(SCC3CO3)c2c1 (stereo not shown) [Example 15DGNDSH, 1,5-bis(glycidylthio)naphthalene] | – | 51.9 % by mass | 60.9 % by mass | 62.3 % by mass | 43.6 % by mass | 56.8 % by mass | 50 to 53 °C | – | – | – | 1.621 | – | – | – | – | – | – |
| OCCSc1cccc2c(SCCO)cccc12 [Example 15DHENDSH, 1,5-bis(2-hydroxyethylthio)naphthalene] | – | 3.01 % by mass | 34.7 % by mass | 3.60 % by mass | 0.35 % by mass | 0.19 % by mass | 84 to 86 °C | – | – | – | 1.668 | – | – | – | – | – | – |
| CSc1cccc2c(SC)cccc12 [Example 15DMNDSH, 1,5-bis(methylthio)naphthalene] | – | 1.25 % by mass | 1.44 % by mass | 1.25 % by mass | 3.13 % by mass | 2.36 % by mass | 149 to 151 °C | – | – | – | 1.690 | about 10 % by mass | – | – | – | – | – |
| Sc1cccc2c(S)cccc12 [Example 15NDSH, 1,5-naphthalenedithiol] | – | 7.05 % by mass | – | 7.44 % by mass | – | 7.26 % by mass | – | – | 34.4 % by mass | 29.0 % by mass | 1.711 | – | 1.08 % by mass | about 5 % by mass | about 0.1 % by mass | – | – |
| C=C(C)C(=O)Sc1cccc2c(SC(=O)C(=C)C)cccc12 [Example 15NDSHMA, 1,5-bis(methacryloylthio)naphthalene] | – | 4.36 % by mass | 5.22 % by mass | 3.34 % by mass | 10.4 % by mass | 6.73 % by mass | – | 1.638 | 13.2 % by mass | 18.7 % by mass | – | – | 0.36 % by mass | – | – | about 10 % by mass | – |
| C=CCSc1ccc2c(SCC=C)cccc2c1 [Example 16DANDSH, 1,6-bis(allylthio)naphthalene] | – | Freely blended (>90) % by mass | Freely blended (>90) % by mass | Freely blended (>90) % by mass | Freely blended (>90) % by mass | Freely blended (>90) % by mass | – | – | – | – | – | – | – | – | – | – | 1.667 |
| c1cc(SCC2CO2)c2ccc(SCC3CO3)cc2c1 (stereo not shown) [Example 16DGNDSH, 1,6-bis(glycidylthio)naphthalene] | – | Freely blended (>90) % by mass | Freely blended (>90) % by mass | Freely blended (>90) % by mass | Freely blended (>90) % by mass | Freely blended (>90) % by mass | – | – | – | – | – | – | – | – | – | – | 1.665 |
| OCCSc1ccc2c(SCCO)cccc2c1 [Example 16DHENDSH, 1,6-bis(2-hydroxyethylthio)naphthalene] | – | Freely blended (>90) % by mass | Freely blended (>90) % by mass | Freely blended (>90) % by mass | 2.87 % by mass | 1.69 % by mass | – | – | – | – | – | – | – | – | – | – | 1.672 |
| C=CSc1ccc2c(SC=C)cccc2c1 [Example 16DVNDSH, 1,6-bis(vinylthio)naphthalene] | – | Freely blended (>90) % by mass | Freely blended (>90) % by mass | Freely blended (>90) % by mass | Freely blended (>90) % by mass | Freely blended (>90) % by mass | – | – | – | – | – | – | – | – | – | – | 1.699 |
| Sc1ccc2c(S)cccc2c1 [Example 16NDSH, 1,6-naphthalenedithiol] | – | – | – | – | – | – | – | – | – | – | 1.722 | – | 19.3 % by mass | – | – | – | – |
| C=C(C)C(=O)Sc1ccc2c(SC(=O)C(=C)C)cccc2c1 [Example 16NDSHMA, 1,6-bis(methacryloylthio)naphthalene] | – | 44.6 % by mass | 44.1 % by mass | 31.1 % by mass | 51.1 % by mass | 50.7 % by mass | – | 1.647 | 59.5 % by mass | 67.6 % by mass | – | – | 2.49 % by mass | – | – | – | – |
| C=C(C)C(=O)Sc1ccc2cc(SC(=O)C(=C)C)ccc2c1 [Example 26NDSHMA, 2,6-bis(methacryloylthio)naphthalene] | – | 1.08 % by mass | 2.42 % by mass | 1.46 % by mass | 5.00 % by mass | 3.73 % by mass | – | 1.651 | 4.59 % by mass | 9.59 % by mass | – | – | 0.13 % by mass | – | – | – | – |
| C=C(C)C(=O)Sc1ccc2ccc(SC(=O)C(=C)C)cc2c1 [Example 27NDSHMA, 2,7-bis(methacryloylthio)naphthalene] | – | 3.20 % by mass | 4.36 % by mass | 2.68 % by mass | 7.92 % by mass | 6.84 % by mass | – | 1.649 | 17.5 % by mass | 13.1 % by mass | – | – | 0.20 % by mass | – | – | – | – |
| C=Cc1ccccc1 [styrene] | 1.544 | – | – | – | – | – | – | – | – | – | – | – | – | – | – | – | – |
